Experimental data as given in patent US20240262826A1, “WILD TYPE KIT INHIBITORS” (Blueprint Medicines Corporation, priority 2022, published 2024).

Columns and labels:
wild type c-kit = wild type c-kit (Homo sapiens (Human), UniProt P10721); assay: PathScan phospho c-kit (Tyr719) sandwich ELISA in SCF-stimulated M-07e cells (pKIT assay); type: cell-based; settings: ELISA assay (values not marked *)
Procedure, shortened: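 Tyr719-phosphorylated c-kit was measured by colorimetric (TMB) sandwich ELISA in lysates of M-07e cells. Cells were starved 4 h without serum or GM-CSF, dosed 60 min at 37 °C with compound (8 points, duplicate, 0.25% DMSO), and stimulated 10 min with human SCF (500 ng/mL as added). IC50 values came from 4-parameter logistic regression.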

[1] = target: human P-glycoprotein (P-gp, MDR1) (Homo sapiens (Human), UniProt P08183); assay: MDCK-MDR1 cell monolayer drug transport assay (P-gp efflux ratio); type: in vitro ADME; settings: pH 7.4, MDCK-MDR1 cells; for efflux ratio at 2 h, 1 µM: 1 uM concentration of compound, read-out: Pgp Efflux Ratio, 1 uM
human P-glycoprotein (P-gp, MDR1), sequence (P08183 whole entry): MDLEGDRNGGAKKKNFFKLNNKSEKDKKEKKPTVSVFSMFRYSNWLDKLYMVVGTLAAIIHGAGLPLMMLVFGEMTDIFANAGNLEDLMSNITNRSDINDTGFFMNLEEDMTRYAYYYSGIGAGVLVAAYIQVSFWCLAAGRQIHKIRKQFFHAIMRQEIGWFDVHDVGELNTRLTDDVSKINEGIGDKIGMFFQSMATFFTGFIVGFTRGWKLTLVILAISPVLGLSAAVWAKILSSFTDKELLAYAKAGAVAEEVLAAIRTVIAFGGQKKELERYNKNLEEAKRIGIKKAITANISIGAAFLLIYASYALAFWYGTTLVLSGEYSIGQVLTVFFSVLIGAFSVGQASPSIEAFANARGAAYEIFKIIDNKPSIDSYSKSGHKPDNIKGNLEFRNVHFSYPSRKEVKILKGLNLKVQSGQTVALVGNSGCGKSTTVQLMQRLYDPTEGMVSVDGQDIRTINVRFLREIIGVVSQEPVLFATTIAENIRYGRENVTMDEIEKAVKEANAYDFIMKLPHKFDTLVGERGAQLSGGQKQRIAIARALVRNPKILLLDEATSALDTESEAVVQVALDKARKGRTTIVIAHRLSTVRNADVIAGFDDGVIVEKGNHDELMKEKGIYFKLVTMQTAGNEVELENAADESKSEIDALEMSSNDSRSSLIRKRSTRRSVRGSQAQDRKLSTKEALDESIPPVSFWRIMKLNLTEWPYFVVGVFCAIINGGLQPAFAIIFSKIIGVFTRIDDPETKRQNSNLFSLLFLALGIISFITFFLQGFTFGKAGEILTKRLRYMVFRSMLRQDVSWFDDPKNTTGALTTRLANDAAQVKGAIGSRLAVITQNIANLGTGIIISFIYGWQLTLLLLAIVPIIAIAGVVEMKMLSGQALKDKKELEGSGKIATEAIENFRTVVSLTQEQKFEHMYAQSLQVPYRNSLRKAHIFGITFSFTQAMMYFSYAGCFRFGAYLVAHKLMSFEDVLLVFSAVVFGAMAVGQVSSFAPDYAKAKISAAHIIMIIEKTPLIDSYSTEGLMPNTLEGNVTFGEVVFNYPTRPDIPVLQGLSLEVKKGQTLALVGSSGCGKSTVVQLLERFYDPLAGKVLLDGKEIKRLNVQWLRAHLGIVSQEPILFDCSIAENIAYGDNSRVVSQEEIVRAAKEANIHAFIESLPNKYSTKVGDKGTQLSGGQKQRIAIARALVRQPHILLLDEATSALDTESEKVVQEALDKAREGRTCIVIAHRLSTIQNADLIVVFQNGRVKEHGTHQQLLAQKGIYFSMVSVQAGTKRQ
Method: The potential for compounds prepared according to the examples to be substrates of P-gp was evaluated using in vitro on Multidrug Resistance Mutation 1-Mardin-Darby Canine Kidney (MDCK-MDR1)) (Mardin-Darby Canine Kidney) cell monolayers overexpressing P-gp grown on permeable supports.
Preparation for cell seeding: MDCK-MDR1 cell culture medium consisting of Dulbecco's Modified Eagle's Medium (DMEM) with high glucose and L-glutamine supplemented with: 10% FBS, 0.1 mg/mL of streptomycin, 0.6 μg/mL of Kanamycin sulfate and 100 units of penicillin was prepared. 50 μL of culture medium was added to each well of the Transwell insert. The Transwell insert was removed from the reservoir and 25 mL of culture medium was added. After incubation at 37° C., 5% CO2 for 1 hour, the plates were ready for cell seeding. The cells were cultivated in T-75 flasks in a cell culture incubator set at 37° C., 5% CO2, 95% relative humidity until they reached 80-90% confluence before detaching and splitting. The cultivated cells were rinsed in T-75 flasks with 5 mL PBS and aspirated off, and then 1.5 mL trypsin/EDTA was added and incubated at 37° C. for approximately 5 to 10 minutes or until the cells detach and float. The trypsin/EDTA was inactived by adding excess serum containing medium. The cell suspension was transferred to a conical tube and the cells pelleted by centrifugation at 120×g for 10 minutes. The cells were resuspended in seeding medium at a density of 1.56×10^6 cells/mL. This cell concentration was used to seed 5.45×10^5 cells/cm^2.
Seeding and feeding of MDCK-MDR1 cells into transwell plates: 50 μL of the above cell suspension was added to each well of a previously prepared Transwell plate and the plate was incubated for 4-8 days, replacing the medium every other day beginning no sooner than 48 hours after initial plating. The medium must be replaced on the day before conducting the experiment, and the procedure for medium changes was carried out as follows. The plate was removed from the incubator and placed in a hood. The medium was aspirated from a reservoir and each Transwell was inserted. 100 μL of culture medium was added to each well of the Transwell inserts and 25 mL of culture medium to reservoir tray. The plate was returned to the incubator.
Assessment of cell monolayer integrity: When the 4-day cultured MDCK-MDR1 cells reached confluence and were differentiated, the medium was removed from the reservoir and Transwell inserts. 100 μL of prewarmed culture medium was added to each transwell insert and 25 mL was added to the reservoir tray. The electrical resistance across the monolayer was measured using a Millicell Epithelial Volt-Ohm measuring system. The electrical resistance for each well was measured and then the plate was returned to the incubator. TEER values were calculated using this formula: TEER measurement (ohms)×Area of membrane (cm2)=TEER value (ohm cm2). Any monolayer with a TEER value <42 ohms·cm2, indicating poor monolayer formation, was discarded.
Performing the drug transport assay: The MDCK-MDR1 plate was removed from the incubator and the monolayer was washed, exchanging the volume two times using pre-warmed HBSS (Hank's balanced salt solution) (10 mM HEPES, pH 7.4). The plate was then incubated at 37° C. for 30 minutes. A 1 μM compound working solution was prepared as follows: Added […] of stock solution (10 mM in DMSO) of test compound and control compounds (Metoprolol, Prazosin and Imatinib) in one 96 well plate, then added 98 μL of DMSO into the same well to obtain 0.2 mM stock solutions (note a stock solution was further diluted 1:10 for eventually making a 0.1 uM compound working solution). Transfered 3 μL of 0.2 mM solution into 597 μL of transport buffer in one 96 well plate to prepare the 1 μM compound working solution. The plate was shaken at 1000 rpm for 10 min.

wild type c-kit, sequence (P10721 26-976): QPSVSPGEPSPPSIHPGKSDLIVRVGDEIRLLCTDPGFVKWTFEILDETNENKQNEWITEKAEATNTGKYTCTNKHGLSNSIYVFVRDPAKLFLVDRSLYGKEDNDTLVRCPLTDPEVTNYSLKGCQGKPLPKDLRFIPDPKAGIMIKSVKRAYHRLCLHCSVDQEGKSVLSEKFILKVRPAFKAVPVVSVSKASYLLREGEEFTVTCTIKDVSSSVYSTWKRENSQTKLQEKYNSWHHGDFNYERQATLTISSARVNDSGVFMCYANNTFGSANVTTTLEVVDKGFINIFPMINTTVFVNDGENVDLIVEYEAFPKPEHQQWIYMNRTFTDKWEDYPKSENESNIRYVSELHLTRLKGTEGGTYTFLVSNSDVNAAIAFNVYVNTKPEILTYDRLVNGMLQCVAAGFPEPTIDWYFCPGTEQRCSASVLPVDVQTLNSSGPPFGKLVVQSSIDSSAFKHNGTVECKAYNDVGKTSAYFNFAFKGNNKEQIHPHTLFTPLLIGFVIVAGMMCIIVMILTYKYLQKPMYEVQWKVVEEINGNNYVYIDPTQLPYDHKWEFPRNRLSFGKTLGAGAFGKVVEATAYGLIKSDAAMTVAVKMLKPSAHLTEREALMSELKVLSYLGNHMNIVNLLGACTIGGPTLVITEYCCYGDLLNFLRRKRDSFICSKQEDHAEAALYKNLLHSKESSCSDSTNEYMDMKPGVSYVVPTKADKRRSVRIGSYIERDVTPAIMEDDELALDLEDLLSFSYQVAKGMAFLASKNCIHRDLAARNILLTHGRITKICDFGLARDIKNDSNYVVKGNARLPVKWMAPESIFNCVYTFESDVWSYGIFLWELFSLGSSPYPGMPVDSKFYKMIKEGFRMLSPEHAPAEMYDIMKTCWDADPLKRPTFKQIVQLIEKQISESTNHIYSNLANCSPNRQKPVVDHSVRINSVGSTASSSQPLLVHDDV

| Compound | IC50 (wild type c-kit) [nM] | efflux ratio at 2 h, 1 µM [1] | efflux ratio at 2 h, 0.1 µM ([1]; 0.1 uM concentration of compound (denoted by **), read-out: Pgp Efflux Ratio) |
| --- | --- | --- | --- |
| Cc1cc(C#N)c(-c2nnn(C3CC(F)(F)C3)n2)cc1NC(=O)c1cnn2ccc(N3CCOCC3)cc12 [Example 165, N-(4-cyano-5-(2-(3,3-difluorocyclobutyl)-2H-tetrazol-5-yl)-2-methylphenyl)-5-morpholinopyrazolo[1,5-a]pyridine-3-carboxamide] | 26.6 | 6.6 | – |
| Cc1ccc(-c2nnn(C)n2)cc1NC(=O)c1cnn2ccc(-c3cnn(CCO)c3)cc12 [Example 47, 5-(1-(2-hydroxyethyl)-1H-pyrazol-4-yl)-N-(2-methyl-5-(2-methyl-2H-tetrazol-5-yl)phenyl)pyrazolo[1,5-a]pyridine-3-carboxamide] | 9.8 | 16 | – |
| COC(=O)N1CC(c2cnn(-c3ccc(C)c(NC(=O)c4cnn5ccc(NC6COC6)cc45)c3)n2)C1 [Example 141, methyl 3-(2-(4-methyl-3-(5-(oxetan-3-ylamino)pyrazolo[1,5-a]pyridine-3-carboxamido)phenyl)-2H-1,2,3-triazol-4-yl)azetidine-1-carboxylate] | 7.6 | 36.4 | – |
| Cc1cnn(-c2ccc(C)c(NC(=O)c3cnn4ccc(-c5cnn(C[C@@H]6CNCCO6)c5)cc34)c2)n1 [Example 204, (S)—N-(2-methyl-5-(4-methyl-2H-1,2,3-triazol-2-yl)phenyl)-5-(1-(morpholin-2-ylmethyl)-1H-pyrazol-4-yl)pyrazolo[1,5-a]pyridine-3-carboxamide] | 10.1 | 62.1 | – |
| COC(=O)N1CC(n2nnc(-c3ccc(C)c(NC(=O)c4cnn5ccc(N6CCOCC6)cc45)c3)n2)C1 [Example 69, methyl 3-(5-(4-methyl-3-(5-morpholinopyrazolo[1,5-a]pyridine-3-carboxamido)phenyl)-2H-tetrazol-2-yl)azetidine-1-carboxylate] | 50.1 | 11.7 | – |
| Cc1cc(Cl)c(-c2nnn(C3CC(F)(F)C3)n2)cc1NC(=O)c1cnn2ccc(N3CCOCC3)cc12 [Example 168, N-(4-chloro-5-(2-(3,3-difluorocyclobutyl)-2H-tetrazol-5-yl)-2-methylphenyl)-5-morpholinopyrazolo[1,5-a]pyridine-3-carboxamide] | 9.2 | 3.2 | – |
| COC(=O)N1CC(n2nnc(-c3ccc(C)c(NC(=O)c4cnn5ccc(N6CC[C@@H](N(C)C)C6)cc45)c3)n2)C1 [Example 97, methyl (R)-3-(5-(3-(5-(3-(dimethylamino)pyrrolidin-1-yl)pyrazolo[1,5-a]pyridine-3-carboxamido)-4-methylphenyl)-2H-tetrazol-2-yl)azetidine-1-carboxylate] | 112 | 23.2 | – |
| COCCS(=O)(=O)N1CC(n2nnc(-c3ccc(C)c(NC(=O)c4cnn5ccccc45)c3)n2)C1 [Example 178, N-(5-(2-(1-((2-methoxyethyl)sulfonyl)azetidin-3-yl)-2H-tetrazol-5-yl)-2-methylphenyl)pyrazolo[1,5-a]pyridine-3-carboxamide] | 17.6 | 4.7 | – |
| COC(=O)N1CC(n2nnc(-c3ccc(C)c(NC(=O)c4cnn5ccc(NCC(C)(C)O)cc45)c3)n2)C1 [Example 89, methyl 3-(5-(3-(5-((2-hydroxy-2-methylpropyl)amino)pyrazolo[1,5-a]pyridine-3-carboxamido)-4-methylphenyl)-2H-tetrazol-2-yl)azetidine-1-carboxylate] | 71 | 43.1 | – |
| COCCOCCNc1ccn2ncc(C(=O)Nc3cc(-c4nnn(C5CN(C(=O)OC)C5)n4)ccc3C)c2c1 [Example 146, methyl 3-(5-(3-(5-((2-(2-methoxyethoxy)ethyl)amino)pyrazolo[1,5-a]pyridine-3-carboxamido)-4-methylphenyl)-2H-tetrazol-2-yl)azetidine-1-carboxylate] | 88.8 | 15.4 | – |
| COCCNc1ccn2ncc(C(=O)Nc3cc(-c4nnn([C@H]5C[C@@H](C(F)(F)F)C5)n4)c(F)cc3C)c2c1 [Example 108, N-(4-fluoro-2-methyl-5-(2-((1s,3s)-3-(trifluoromethyl)cyclobutyl)-2H-tetrazol-5-yl)phenyl)-5-((2-methoxyethyl)amino)pyrazolo[1,5-a]pyridine-3-carboxamide] | 11.6 | 4 | – |

Compounds with a lower IC50 (wild type c-kit), results first:

| IC50 (wild type c-kit) [nM] | efflux ratio at 2 h, 1 µM [1] | efflux ratio at 2 h, 0.1 µM ([1]; 0.1 uM concentration of compound (denoted by **), read-out: Pgp Efflux Ratio) | Compound |
| --- | --- | --- | --- |
| 2.3 | 3.9 | – | COCCNc1ccn2ncc(C(=O)Nc3cc(-c4nnn([C@H]5C[C@@H](C(F)(F)F)C5)n4)ccc3C)c2c1 [Example 119, 5-((2-methoxyethyl)amino)-N-(2-methyl-5-(2-((1s,3s)-3-(trifluoromethyl)cyclobutyl)-2H-tetrazol-5-yl)phenyl)pyrazolo[1,5-a]pyridine-3-carboxamide or 5-((2-methoxyethyl)amino)-N-(2-methyl-5-(2-((1r,3r)-3-(trifluoromethyl)cyclobutyl)-2H-tetrazol-5-yl)phenyl)pyrazolo[1,5-a]pyridine-3-carboxamide] |
| 0.2 | – | 5.9 | Cc1nn(CCO)cc1-c1ccn2ncc(C(=O)Nc3cc(-c4nnn(C5CC5)n4)ccc3Cl)c2c1 [Example 238, N-[2-chloro-5-(2-cyclopropyl-2H-1,2,3,4-tetrazol-5-yl)phenyl]-5-[1-(2-hydroxyethyl)-3-methyl-1H-pyrazol-4-yl]pyrazolo[1,5-a]pyridine-3-carboxamide] |
| 1.2 | 22.6 | – | Cc1ccc(-c2nnn(C3CC3)n2)cc1NC(=O)c1cnn2ccc(-c3cnn(CC4(O)CCOCC4)c3)cc12 [Example 206, N-(5-(2-cyclopropyl-2H-tetrazol-5-yl)-2-methylphenyl)-5-(1-((4-hydroxytetrahydro-2H-pyran-4-yl)methyl)-1H-pyrazol-4-yl)pyrazolo[1,5-a]pyridine-3-carboxamide] |
| 0.6 | 7.4 | – | Cc1cc(F)c(-c2nnn(C3CC3)n2)cc1NC(=O)c1cnn2ccc(-c3cnn(CC(C)(C)O)c3C)cc12 [Example 240, N-(5-(2-cyclopropyl-2H-tetrazol-5-yl)-4-fluoro-2-methylphenyl)-5-(1-(2-hydroxy-2-methylpropyl)-5-methyl-1H-pyrazol-4-yl)pyrazolo[1,5-a]pyridine-3-carboxamide] |
| 0.5 | 4.9 | – | C[C@](O)(CO)Cn1cc(-c2ccn3ncc(C(=O)Nc4cc(-n5nnc([C@@H]6C[C@H]6F)n5)ccc4Cl)c3c2)cn1 (single isomer, unassigned) [Example 273, N-(2-chloro-5-(5-((1S,2R)-2-fluorocyclopropyl)-2H-tetrazol-2-yl)phenyl)-5-(1-((R)-2,3-dihydroxy-2-methylpropyl)-1H-pyrazol-4-yl)pyrazolo[1,5-a]pyridine-3-carboxamide or N-(2-chloro-5-(5-((1R,2S)-2-fluorocyclopropyl)-2H-tetrazol-2-yl)phenyl)-5-(1-((R)-2,3-dihydroxy-2-methylpropyl)-1H-pyrazol-4-yl)pyrazolo[1,5-a]pyridine-3-carboxamide] |
| 0.3 | 3.4 | – | C[C@](O)(CO)Cn1cc(-c2ccn3ncc(C(=O)Nc4cc(-c5nnn(C6CC6)n5)ccc4Cl)c3c2)cn1 [Example 266, (R)-N-(2-chloro-5-(2-cyclopropyl-2H-tetrazol-5-yl)phenyl)-5-(1-(2,3-dihydroxy-2-methylpropyl)-1H-pyrazol-4-yl)pyrazolo[1,5-a]pyridine-3-carboxamide] |
